Results: US12162858B2, “Quinoline derivatives as inhibitors of AXL/MER RTK and CSF1R” (QURIENT CO., LTD., priority 2018, dated 2024)
Like-named read-outs stand apart in the source and are kept apart here.

How the values were obtained:
CSF1R [1] = target: T1, CSF1R (Homo sapiens, UniProt P07333); test: KINOMEscan competition binding assay for CSF1R; set-up: DNA tag for qPCR (not a peptide); host or cells: E. coli/T7 phage or HEK-293; settings: @ 0.1 uM
Procedure: KINOMEscan™ is based on a competition binding assay that quantitatively measures the ability of a compound to compete with an immobilized, active-site directed ligand. The assay is performed by combining three components: DNA-tagged kinase; immobilized ligand; and a test compound. The ability of the test compound to compete with the immobilized ligand is measured via quantitative PCR of the DNA tag.
E. coli were grown to log-phase and infected with T7 phage and incubated with shaking at 32° C. until lysis. The lysates were centrifuged and filtered to remove cell debris. The remaining kinases were produced in HEK-293 cells and subsequently tagged with DNA for qPCR detection. Streptavidin-coated magnetic beads were treated with biotinylated small molecule ligands for 30 minutes at room temperature to generate affinity resins for kinase assays. The liganded beads were blocked with excess biotin and washed with blocking buffer (SeaBlock (Pierce), 1% BSA, 0.05% Tween 20, 1 mM DTT) to remove unbound ligand and to reduce non-specific binding. Binding reactions were assembled by combining kinases, liganded affinity beads, and test compounds in 1× binding buffer (20% SeaBlock, 0.17×PBS, 0.05% Tween 20, 6 mM DTT). Test compounds were prepared as 111× stocks in 100% DMSO. Kds were determined using an 11-point 3-fold compound dilution series with three DMSO control points. All compounds for Kd measurements are distributed by acoustic transfer (non-contact dispensing) in 100% DMSO. The compounds were then diluted directly into the assays such that the final concentration of DMSO was 0.9%. In case of % inhibition, test compounds were prepared as 40× stocks in 100% DMSO and directly diluted into the assay. All reactions performed in polypropylene 384-well plate. Each was a final volume of 0.02 ml. The assay plates were incubated at room temperature with shaking for 1 hour and the affinity beads were washed with wash buffer (1×PBS, 0.05% Tween 20). The beads were then re-suspended in elution buffer (1×PBS, 0.05% Tween 20, 0.5 μM non-biotinylated affinity ligand) and incubated at room temperature with shaking for 30 minutes. The kinase concentration in the eluates was measured by qPCR.
The CSF1R kinase binding activity results are shown in tables 1 (Kd) and 2 (percent inhibition at a concentration of 0.1 uM of compound to be tested).
Binding constants (Kds) were calculated with a standard dose-response curve using the Hill equation: […]
The Hill Slope was set to −1.
Curves were fitted using a non-linear least square fit with the Levenberg-Marquardt algorithm.
Binding % inhibition were calculated with as below:
[formula] • negative control=DMSO (100% Ctrl) • positive control=control compound (0% Ctrl)

CSF1R [2] = target: T1, CSF1R; test: Cellular CSF1R inhibition ELISA (p-CSF1R, M-CSF-induced) using THP-1 cells; type: cell-based; set-up: THP-1 cells act as a model for human monocytes; endogenous in cells; host or cells: THP-1
From the text: The normal proto-oncogene c-fms encodes the macrophage growth factor (M-CSF, also known as CSF1) receptor involved in growth, survival, and differentiation along the monocyte-macrophage lineage. THP-1 cells act as a model for human monocytes. It confirms that an increased phosphorylation of CSF1R (p-CSF1R) can be observed, when induced by CSF1R ligand, CSF1.
The THP-1 cells should be maintained from 5×10^5 to 1×10^6 cells/ml in the cell culture flask. After centrifugation, the supernatant is aspirated. The cell pellet is re-suspended with pre-warmed growth medium (RPMI1640, 10% FBS, 0.05 mM 2-Mercaptoethanol) and cells are separated by pipetting 6 times up and down with a 10 ml serological pipette. The cell suspension has to be diluted to a final concentration of 2×10^5 cells per 80 μl with pre-warmed growth medium. 80 μl of cell suspension is added to all wells of plates. Cell-plates are incubated at 37° C./5% CO2. Dissolve compound in 100% DMSO to make 10 mM stock solutions (Aliquots stored in the Nitrogen Cabinet). Dilute 10 mM compounds solutions for 2-fold in 100% DMSO to get 5 mM solutions (10 μl+10 μl DMSO), and then make a 3-fold serial dilution (10 μl+20 μl DMSO) for 10 doses. For reference compounds: Dilute 10 mM compounds solutions for 20-fold in 100% DMSO to get 0.5 mM solutions (2 μl+38 μl DMSO), and then make a 3-fold serial dilution (10 μl+20 μl DMSO) for 10 doses. Transfer 2 μl diluted compounds to 198 μl medium to get solution of 50 μM concentration at top point for compounds and 5 μM for reference compounds. Then transfer 20 μl cpd solution into assay plate (Duplicate wells). The plate is incubated at 37° C./5% CO2 for 24 h. The final concentration of DMSO in all wells is […]. Reconstitute human M-CSF at 50 μg/ml in sterile water. (Aliquots stored in −80° C.). 1:1000 dilute human M-CSF by fresh medium to 50 ng/ml. After 24 h compounds treatment, transfer 25 μl diluted human M-CSF (50 ng/ml) to cell plate according to the plate map. The final concentration of human M-CSF in all wells is 10 ng/ml.
The plates is incubated at 37° C./5% CO2 for 5 min. In the beginning the appropriate amount of lysis buffer complete (100 μL/well) is prepared and stored on ice. After 5 min human M-CSF stimulation, wash plates once with 300 μL ice cold PBS. Then 100 μl lysis buffer is added to each well. The plate is shacked for 40 min at 4° C. Plates can now be stored at −20° C. After equilibrate the micro-well strips at room temperature, break off the required number of micro-wells. Place the micro-wells in the strip holder. Unused micro-wells must be resealed and stored at 4° C. immediately. Add 90 μl of cell lysate to the appropriate well. Seal with tape and press firmly onto top of micro-wells. Incubate the plate for 2 h at 37° C. Gently remove the tape and wash wells 4 times with 1× Wash Buffer, 200 μl each time for each well. Add 100 μl of reconstituted Detection Antibody (green color) to each well. Seal with tape and incubate the plate at 37° C. for 1 h. Repeat wash procedure. Add 100 μl of reconstituted HRP-Linked secondary antibody to each well. Seal with tape and incubate the plate for 30 min at 37° C. Repeat wash procedure. Add 100 μl of TMB Substrate to each well. Seal with tape and incubate the plate for 10 min at 37° C. or 30 min at 25° C. Calculations and Formulas: The following calculations and formulas are used for data analysis using XL Fit software: The curve fitting was made using the Sigmoidal Dose-Response Model (Fit model, 205).

[3] = read-out: CSF1R kinase binding activity, Percent (%) inhibition
[4] = read-out: CSF1R kinase binding activity, Range

T1 sequence (P07333 20-972): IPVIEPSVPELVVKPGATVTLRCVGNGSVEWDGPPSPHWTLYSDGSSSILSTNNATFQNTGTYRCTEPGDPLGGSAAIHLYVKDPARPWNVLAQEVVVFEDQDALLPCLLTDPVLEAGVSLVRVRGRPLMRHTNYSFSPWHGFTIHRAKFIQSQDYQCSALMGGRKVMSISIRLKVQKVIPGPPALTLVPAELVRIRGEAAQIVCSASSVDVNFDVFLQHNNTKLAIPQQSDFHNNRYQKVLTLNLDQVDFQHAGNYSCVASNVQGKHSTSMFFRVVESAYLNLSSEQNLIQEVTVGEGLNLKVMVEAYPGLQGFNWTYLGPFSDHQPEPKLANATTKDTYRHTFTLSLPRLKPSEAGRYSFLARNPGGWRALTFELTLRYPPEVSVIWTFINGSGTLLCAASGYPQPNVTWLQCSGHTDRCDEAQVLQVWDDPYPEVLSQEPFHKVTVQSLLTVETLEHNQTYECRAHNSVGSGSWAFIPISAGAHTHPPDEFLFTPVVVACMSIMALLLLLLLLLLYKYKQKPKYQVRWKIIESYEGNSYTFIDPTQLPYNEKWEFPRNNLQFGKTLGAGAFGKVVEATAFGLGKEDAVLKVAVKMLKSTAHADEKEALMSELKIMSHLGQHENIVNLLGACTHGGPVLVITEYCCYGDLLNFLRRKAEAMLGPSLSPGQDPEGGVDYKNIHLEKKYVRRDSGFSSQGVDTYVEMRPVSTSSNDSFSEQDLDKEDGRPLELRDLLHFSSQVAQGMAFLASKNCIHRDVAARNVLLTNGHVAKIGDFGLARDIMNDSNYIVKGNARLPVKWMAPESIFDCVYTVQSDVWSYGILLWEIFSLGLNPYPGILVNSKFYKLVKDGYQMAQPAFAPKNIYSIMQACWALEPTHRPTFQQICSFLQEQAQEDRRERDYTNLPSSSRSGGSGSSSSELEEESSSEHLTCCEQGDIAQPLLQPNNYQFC

Structure (SMILES)	inhibition at 0.1 µM (CSF1R [1]; [3])	inhibition at 0.1 µM (CSF1R [1]; [4])	IC50 (CSF1R [2])
COc1cc2nccc(Oc3ccc(NC(=O)c4nn(C5CC5)cc4OC(C)C)nc3)c2cc1OC [Compound 108]	96%	≥ 80%	< 500 nM
COc1cc2nccc(Oc3ccc(NC(=O)c4nn(C5CC5)cc4OCC(F)F)nc3)c2cc1OC [Compound 109]	98%	≥ 80%	< 500 nM
COc1cc2nccc(Oc3ccc(NC(=O)c4nn(C5CC5)cc4OCCF)nc3)c2cc1OC [Compound 110]	98%	≥ 80%	< 500 nM
COc1cc2nccc(Oc3ccc(NC(=O)c4nn(C5CC5)cc4OCC4CCC4)nc3)c2cc1OC [Compound 111]	89%	≥ 80%	500 to 1000 nM
COc1cc2nccc(Oc3ccc(NC(=O)c4nn(C5CC5)cc4OCC(F)(F)F)nn3)c2cc1OC [Compound 112]	97%	≥ 80%	500 to 1000 nM
COc1cc2nccc(Oc3ccc(NC(=O)c4nn(C5CC5)cc4OCCF)nn3)c2cc1OC [Compound 113]	82%	≥ 80%	< 500 nM
CCCn1cc(OCC(F)(F)F)c(C(=O)Nc2ccc(Oc3ccnc4cc(OC)c(OC)cc34)c(C(F)(F)F)c2)n1 [Compound 114]	27%	< 50%	≥ 1000 nM
COc1cc2nccc(Oc3ccc(NC(=O)c4nn(CCOC5CC5)cc4OCC(F)(F)F)c(F)c3)c2cc1OC [Compound 115]	94%	≥ 80%	500 to 1000 nM
COc1cc2nccc(Oc3ccc(NC(=O)c4nn(CCOC5CC5)cc4OCC(F)(F)F)cc3F)c2cc1OC [Compound 116]	93%	≥ 80%	500 to 1000 nM
COc1cc2nccc(Oc3ccc(NC(=O)c4nn(CCOC5CC5)cc4OCC(F)(F)F)cc3C)c2cc1OC [Compound 117]	94%	≥ 80%	< 500 nM
COc1cc2nccc(Oc3ccc(NC(=O)c4nn(CCOC5CC5)cc4OCC(F)(F)F)cc3)c2cc1OC [Compound 118]	93%	≥ 80%	500 to 1000 nM
CNCCn1cc(OCC(F)(F)F)c(C(=O)Nc2ccc(Oc3ccnc4cc(OC)c(OC)cc34)cc2)n1 [Compound 119]	9%	< 50%	≥ 1000 nM
COc1cc2nccc(Oc3ccc(NC(=O)c4nn(CCOC5CC5)cc4OCC(F)(F)F)nn3)c2cc1OC [Compound 120]	95%	≥ 80%	500 to 1000 nM
COc1cc2nccc(Oc3ccc(NC(=O)c4nn(C5CCCC5)cc4OCC(F)(F)F)nn3)c2cc1OC [Compound 121]	98%	≥ 80%	< 500 nM
COc1cc2nccc(Oc3ccc(NC(=O)c4nn(C5CCNC5)cc4OCC(F)(F)F)nn3)c2cc1OC (stereo not drawn) [Compound 122]	19%	< 50%	≥ 1000 nM
COc1cc2nccc(Oc3ccc(NC(=O)c4nn(CC5COC5)cc4OCC(F)(F)F)nn3)c2cc1OC [Compound 123]	72%	50 to 80%	≥ 1000 nM
COc1cc2nccc(Oc3ccc(NC(=O)c4nn(CC(C)C)cc4OCC(F)(F)F)nn3)c2cc1OC [Compound 124]	95%	≥ 80%	500 to 1000 nM
COc1cc2nccc(Oc3ccc(NC(=O)c4nn(CCN)cc4OCC(F)(F)F)nn3)c2cc1OC [Compound 125]	38%	< 50%	≥ 1000 nM
COCCn1cc(OCC(F)(F)F)c(C(=O)Nc2ccc(Oc3ccnc4cc(OC)c(OC)cc34)nn2)n1 [Compound 126]	78%	50 to 80%	≥ 1000 nM
CNCCn1cc(OCC(F)(F)F)c(C(=O)Nc2ccc(Oc3ccnc4cc(OC)c(OC)cc34)nn2)n1 [Compound 127]	38%	< 50%	≥ 1000 nM
COc1cc2nccc(Oc3ccc(NC(=O)c4nn(C5CCOC5)cc4OCC(F)(F)F)nn3)c2cc1OC (stereo not drawn) [Compound 128]	94%	≥ 80%	< 500 nM
COc1cc2nccc(Oc3ccc(NC(=O)c4nn(CCO)cc4OCC(F)(F)F)cn3)c2cc1OC [Compound 129]	24%	< 50%	≥ 1000 nM
COc1cc2nccc(Oc3ccc(NC(=O)c4nn(CCOC5CC5)cc4OCC(F)(F)F)cn3)c2cc1OC [Compound 130]	41%	< 50%	≥ 1000 nM
